Assay results taken from patent US20100317626A1, “The Use Of (3-Amino-2-Fluoropropyl) Phosphinic Acid For Treatment Of NERD” (ASTRAZENECA AB, priority 2007, published 2010).

What was measured:
[1] = system: transient lower esophageal sphincter relaxations (TLESRs); test: Clinical study: number of TLESRs after a standardised meal, single-blind randomised placebo-controlled; type: in vivo, healthy volunteers; conditions: for reduction of the number of transient lower esophageal sphincter relaxations (TLESRs) as compared to placebo: healthy volunteers, 0-3 hours after intake of a standardised meal completed 1 hour after drug intake
Procedure: A clinical study of (2R)-(3-Amino-2-fluoropropyl)phosphinic acid was performed. The study was a single-blind, randomised, parallel group, placebo-controlled study in healthy volunteers. Each subject was given 2 doses of (2R)-(3-Amino-2-fluoropropyl)phosphinic acid in escalating order and one placebo dose. A dose of (2R)-(3-Amino-2-fluoropropyl)phosphinic acid 0.8 mg/kg was compared to placebo and baclofen (40 mg) was used as a positive control. The order of treatments was randomised. The number of transient lower esophageal sphincter relaxations (TLESRs) 0-3 hours after intake of a standardised meal, (completed 1 hour after drug intake) were reduced by 36% and 47% for (2R)-(3-Amino-2-fluoropropyl)phosphinic acid and baclofen respectively, as compared to placebo (FIG. 1).

[2] = system: bile reflux and reflux symptoms; conditions: patients with persistent non-acid duodenogastroesophageal reflux; cited from earlier work
[3] = clinical study in healthy volunteers

| Structure (SMILES) | inhibition of TLESRs (result in words) [1, 3] | tolerability [1, 3] | reduction of the number of transient lower esophageal sphincter relaxations (TLESRs) as compared to placebo ([1]; dose 0.8 mg/kg) [%] | reduction of the number of transient lower esophageal sphincter relaxations (TLESRs) as compared to placebo ([1]; baclofen 40 mg, positive control) [%] | effect on bile reflux and reflux symptoms [2] |
| --- | --- | --- | --- | --- | --- |
| NC[C@@H](F)C[PH](=O)O [(2R)-(3-Amino-2-fluoropropyl)phosphinic acid] | efficacious | well tolerated | 36 | – | – |
| NCC(CC(=O)O)c1ccc(Cl)cc1 (centres unmarked) [baclofen, reference compound] | – | – | – | 47 | inhibit the occurrence of bile reflux and reflux symptoms |
